US20190223443A1, “Methods to Increase Corn Growth” (Valent BioSciences LLC, priority 2015, published 2019)

Assays:
Type in all cases: in vivo
[1] = system: Hybrid 1, Hybrid 2 and Hybrid 3 corn; test: Long Grove, Ill., sprayed at V4, distance of growing point relative to soil surface (Examples 6 and 10); conditions: for Distance of the growing point relative to the soil surface, 7 days post treatment / Distance of the growing point relative to the soil surface, 13 days post treatment / Distance of the growing point relative to the soil surface, 20 days post treatment / Distance of the growing point relative to the soil surface, 4 days post treatment: Table 7; for Distance of growing point relative to soil surface, 7 days post treatment / Distance of growing point relative to soil surface, 13 days post treatment / Distance of growing point relative to soil surface, 20 days post treatment / Distance of growing point relative to soil surface, 4 days post treatment: Table 12
Procedure: In this example, seeds of three varieties were sown at Long Grove, Ill. and were grown under similar conditions as in Examples 3 to 6. Three hybrid corn varieties were grown, Hybrid 1 and 2 as above, and Hybrid 3 which was another central corn belt variety requiring 111 days to maturity.
At the early V-stages, the growing point of the corn stem is below the soil surface and emerges from the soil when the plants are at V5 or later, depending on the variety. In spring, the soil is generally cooler than the air temperature. Therefore, there would be an advantage to getting the growing point above the soil surface to facilitate faster growth.
The plants were sprayed at the V4 growth stage. Plants were dug from the ground at days after spray. Stems of five plants per replicate, three replicates per treatment were split and the distance of the growing point relative to the soil surface was determined in mm.
Seeds of three varieties were sown at Long Grove, Ill. and were grown under similar conditions as in Example 8, above. Three hybrid corn varieties were grown, Hybrid 1 and 2 as described in Examples 8 and 9, above, and Hybrid 3 which was another central corn belt variety requiring 111 days to maturity. The plants were sprayed at the V4 growth stage. Plants were dug from the ground at days after spray. Stems of five plants per replicate, three replicates per treatment were split and the distance of the growing point relative to the soil surface was determined in mm. Results of this study are found in Table 12, below, describing distance of growing point relative to soil surface in millimeters.

[2] = system: Hybrid corn; test: Vigor rating after foliar treatment at V2, field, Chabás, Santa Fe, Argentina (Example 1); conditions: 1 to 9 scale (untreated=5.0)
Procedure: Hybrid corn was grown under conventional tillage in Chabás, Santa Fe, Argentina. At V2 growth stage, GA3 or a combination of GA3 and ABA was applied as a foliar treatment. Vigor was rated on a 1 to 9 scale (untreated=5.0) following spray applications at the times specified in Table 1.

[3] = system: Hybrid 1 and Hybrid 2 corn; test: Field study Woodstock, Ill., sprayed at V2, shoot height (Examples 4 and 8); conditions: for Growth response to spray treatment (in words): sprayed at V2
Procedure: (§1) A field study was conducted at Woodstock, Ill. Seeds of two commercial varieties were sown: Hybrid 1 was northern corn belt variety with 100 days to maturity, while Hybrid 2 was a central corn belt variety with 111 days to maturity. Corn of these two varieties was sown into cool soil on May 7, 2014. Plants were sprayed at V2 with solutions containing a non-ionic surfactant (0.25%, v/v) at 15 gallons of spray solution/acre and growth was followed for 14 days. At seven days and 14 days after treatment shoot heights in centimeters were measured for 60 plants in each replicate.
as §1, with “GA3 refers to gibberellic acid” for “At seven days”, “ABA refers to abscisic acid. Results of the study are found in Table 10 below describing” for “14 days after treatment”, “height” for “heights”, “centimeters.” for “centimeters were measured for 60 plants in each replicate.”

[4] = system: Hybrid corn; test: Corn trial under conventional tillage, Lozada, Argentina, sprayed at V3, yield at harvest (Example 3); conditions: for Yield difference from control treatment: difference of the Yield (kg/ha) column; for Yield: untreated 3840
From the text: In a corn trial under conventional tillage in Lozada, Argentina, hybrid corn was planted and sprayed at 16 days post-planting at the V3 growth stage.

[5] = system: corn hybrid B73 X Mo17; test: Greenhouse study Long Grove, Ill., sprayed at V1-V2, change in height and synergy (Example 7)
Procedure: A greenhouse study was conducted at Long Grove, Ill. Seeds of the corn hybrid B73 X Mo17 was sown into potted soil on May 7, 2014. Plants were sprayed at 11 days post sowing (V1-V2) with solutions containing a non-ionic surfactant (0.25%, v/v) and growth was followed for 6 days. GA3 refers to gibberellic acid and ABA refers to abscisic acid. Results of the study described in 3. above can be seen in the following tables describing change in height in centimeters from day of treatment (Table 8) and change in height in centimeters from day of treatment compared to control (Table 9).
Synergy is calculated as follows: […]
Observed difference in height from control/Expected difference in height from control, where expected difference in height from control is the sum of the observed difference in height of each active ingredient applied alone. If the ratio between the experimentally observed efficacy of the mixture and the expected efficacy of the mixture is greater than 1, than synergistic interactions are present in the mixture.

[6] = system: Hybrid corn; test: Final yield, field, Chabás, Santa Fe, Argentina (Example 1); conditions: untreated 8096
[7] = GA3 16 g/ha, mixtures plus ABA as labelled
[8] = GA3 120 ppm, mixtures plus ABA 12 (10:1), 10 (12:1) or 8.6 ppm (14:1)

Question: With `C=C1C[C@]23C[C@@]1(O)CC[C@H]2[C@@]12C=C[C@H](O)[C@@](C)(C(=O)O1)[C@H]2[C@@H]3C(=O)O` [GA3, gibberellic acid] as the molecule, how does the “Distance of the growing point relative to the soil surface, 7 days post treatment” value ([1]; Hybrid 1, control 0:0 17.47) read?
Answer: 34.53 mm

Question: And the “Distance of the growing point relative to the soil surface, 13 days post treatment” value ([1]; Hybrid 1, control 0:0 166.40)?
Answer: 163.27 mm

Question: What about the “Distance of the growing point relative to the soil surface, 20 days post treatment” value ([1]; Hybrid 1, control 0:0 644.00) of the same molecule?
Answer: 603.80 mm

Question: What about the “Distance of the growing point relative to the soil surface, 4 days post treatment” value ([1]; Hybrid 1, control 0:0 −1.13) of the same molecule?
Answer: 4.20 mm

Question: And the “Distance of growing point relative to soil surface, 7 days post treatment” value ([1]; Hybrid 1, control 0:0 17.47)?
Answer: 34.53 mm

Question: What about the “Distance of growing point relative to soil surface, 13 days post treatment” value ([1]; Hybrid 1, control 0:0 166.40) of the same molecule?
Answer: 163.27 mm

Question: What about the “Distance of growing point relative to soil surface, 20 days post treatment” value ([1]; Hybrid 1, control 0:0 644.00) of the same molecule?
Answer: 603.80 mm

Question: And the “Distance of growing point relative to soil surface, 4 days post treatment” value ([1]; Hybrid 1, control 0:0 −1.13)?
Answer: 4.20 mm

Question: And the “Distance of the growing point relative to the soil surface, 4 days post treatment” value ([1]; Hybrid 2, control 0:0 0.80)?
Answer: 1.87 mm

Question: And the “Distance of the growing point relative to the soil surface, 7 days post treatment” value ([1]; Hybrid 2, control 0:0 18.80)?
Answer: 24.07 mm

Question: And the “Distance of the growing point relative to the soil surface, 13 days post treatment” value ([1]; Hybrid 2, control 0:0 128.87)?
Answer: 130.93 mm

Question: And the “Distance of the growing point relative to the soil surface, 20 days post treatment” value ([1]; Hybrid 2, control 0:0 517.13)?
Answer: 515.53 mm

Question: And the “Distance of growing point relative to soil surface, 4 days post treatment” value ([1]; Hybrid 2, control 0:0 0.80)?
Answer: 1.87 mm

Question: And the “Distance of growing point relative to soil surface, 7 days post treatment” value ([1]; Hybrid 2, control 0:0 18.80)?
Answer: 24.07 mm

Question: What about the “Distance of growing point relative to soil surface, 13 days post treatment” value ([1]; Hybrid 2, control 0:0 128.87) of the same molecule?
Answer: 130.93 mm

Question: What about the “Distance of growing point relative to soil surface, 20 days post treatment” value ([1]; Hybrid 2, control 0:0 517.13) of the same molecule?
Answer: 515.53 mm

Question: And the “Distance of the growing point relative to the soil surface, 4 days post treatment” value ([1]; Hybrid 3, control 0:0 0.53)?
Answer: 3.67 mm

Question: What about the “Distance of the growing point relative to the soil surface, 7 days post treatment” value ([1]; Hybrid 3, control 0:0 25.60) of the same molecule?
Answer: 27.87 mm

Question: What about the “Distance of the growing point relative to the soil surface, 13 days post treatment” value ([1]; Hybrid 3, control 0:0 147.73) of the same molecule?
Answer: 164.67 mm

Question: What about the “Distance of the growing point relative to the soil surface, 20 days post treatment” value ([1]; Hybrid 3, control 0:0 619.33) of the same molecule?
Answer: 653.53 mm

Question: What about the “Distance of growing point relative to soil surface, 4 days post treatment” value ([1]; Hybrid 3, control 0:0 0.53) of the same molecule?
Answer: 3.67 mm

Question: And the “Distance of growing point relative to soil surface, 7 days post treatment” value ([1]; Hybrid 3, control 0:0 25.60)?
Answer: 27.87 mm

Question: What about the “Distance of growing point relative to soil surface, 13 days post treatment” value ([1]; Hybrid 3, control 0:0 147.73) of the same molecule?
Answer: 164.67 mm

Question: What about the “Distance of growing point relative to soil surface, 20 days post treatment” value ([1]; Hybrid 3, control 0:0 619.33) of the same molecule?
Answer: 653.53 mm

Question: What about the “Vigor 3 d post-spraying” value ([2]; GA3 8 g/ha) of the same molecule?
Answer: 5.2

Question: What about the “Vigor 7 d post-spraying” value ([2]; GA3 8 g/ha) of the same molecule?
Answer: 5.3

Question: And the “Vigor 15 d post-spraying” value ([2]; GA3 8 g/ha)?
Answer: 5.5

Question: What about the “Vigor 3 d post-spraying” value [2, 7] of the same molecule?
Answer: 5.5

Question: And the “Vigor 7 d post-spraying” value [2, 7]?
Answer: 5.6

Question: And the “Vigor 15 d post-spraying” value [2, 7]?
Answer: 6.0

Question: What about the “Shoot height, 7 days post treatment” value ([3]; Hybrid 1, Table 5, control 0:0 37.75) of the same molecule?
Answer: 36.07 cm

Question: What about the “Shoot height, 14 days post treatment” value ([3]; Hybrid 1, Table 5, control 0:0 57.90) of the same molecule?
Answer: 57.08 cm

Question: And the “Shoot height, 7 days post treatment” value ([3]; Hybrid 1, Table 10, control 0:0 37.75)?
Answer: 36.07 cm

Question: And the “Shoot height, 14 days post treatment” value ([3]; Hybrid 1, Table 10, control 0:0 57.90)?
Answer: 57.08 cm

Question: What about the “Growth response to spray treatment (in words)” value ([3]; Hybrid 1) of the same molecule?
Answer: did not respond

Question: And the “Shoot height, 7 days post treatment” value ([3]; Hybrid 2, Table 5, control 0:0 29.56)?
Answer: 31.33 cm

Question: What about the “Shoot height, 14 days post treatment” value ([3]; Hybrid 2, Table 5, control 0:0 50.16) of the same molecule?
Answer: 51.20 cm

Question: And the “Shoot height, 7 days post treatment” value ([3]; Hybrid 2, Table 10, control 0:0 29.56)?
Answer: 31.33 cm

Question: What about the “Shoot height, 14 days post treatment” value ([3]; Hybrid 2, Table 10, control 0:0 50.16) of the same molecule?
Answer: 51.20 cm

Question: And the “Growth response to spray treatment (in words)” value ([3]; Hybrid 2)?
Answer: growth increased

Question: What about the “Yield difference from control treatment” value ([4]; GA3 8 g/ha) of the same molecule?
Answer: 370

Question: What about the Yield ([4]; GA3 8 g/ha) of the same molecule?
Answer: 4210 kg/ha

Question: What about the “Yield difference from control treatment” value [4, 7] of the same molecule?
Answer: 345

Question: What about the Yield [4, 7] of the same molecule?
Answer: 4185 kg/ha

Question: What about the “Observed change in height from day of treatment compared to control, 2 days post treatment” value [5, 8] of the same molecule?
Answer: 3.13 cm

Question: And the “Observed change in height from day of treatment compared to control, 4 days post treatment” value [5, 8]?
Answer: 4.97 cm

Question: And the “Observed change in height from day of treatment compared to control, 6 days post treatment” value [5, 8]?
Answer: 7.21 cm

Question: And the “Change in height from day of treatment, 2 days post treatment” value ([5]; GA3 120 ppm, mixtures plus ABA 12 (10:1), 10 (12:1) or 8.6 ppm (14:1), control 9.74)?
Answer: 12.87 cm

Question: And the “Change in height from day of treatment, 4 days post treatment” value ([5]; GA3 120 ppm, mixtures plus ABA 12 (10:1), 10 (12:1) or 8.6 ppm (14:1), control 22.59)?
Answer: 27.56 cm

Question: What about the “Change in height from day of treatment, 6 days post treatment” value ([5]; GA3 120 ppm, mixtures plus ABA 12 (10:1), 10 (12:1) or 8.6 ppm (14:1), control 43.03) of the same molecule?
Answer: 50.24 cm

Question: What about the “Height of the corn compared to the control (in words)” value ([5]; applied alone, Tables 8 and 9) of the same molecule?
Answer: increased the height

Question: And the Yield ([6]; GA3 8 g/ha)?
Answer: 8355 kg/ha

Question: And the Yield [6, 7]?
Answer: 8769 kg/ha
